Results published in patent US5599559A, “Calcium channel blocking polypeptide from agelenopsis aperta and therapeutic methods employing it” (priority 1995, dated 1997).
pIC50: −log10 of the molar value. Where two headings read alike, the source gives them in different places.

System: calcium channels
Type: cell-based, rats
Settings: read-out: IC50 for blocking calcium channels, pH 7.4

Question: How did the pIC50 turn out when `COc1ccc(CCN(C)CCCC(C#N)(c2ccc(OC)c(OC)c2)C(C)C)cc1OC` (centres unmarked) [Verapamil] was run?
Answer: 5.32

Question: With “H2 N-Glu-Ala-Cys-Ala-Gly-Ala-Tyr-Lys-Ser-Cys-Asp-Lys-Val-Lys-Cys-Cys-His-Asp- Arg-Arg-Cys-Arg-Cys-Asn-lle-Ala-Met-Asp-Asn-Cys-Val-Cys-Lys-Leu-Phe-Tyr-Cys-Glu-Leu-Phe-Gly-Thr-Cys-Asp-Arg-Leu-Lys-Pro [peptide J2]” as the compound, how does the pIC50 (cerebellar granule cells from 8 day old rats, fura2 fluorescence, 37° C.) read?
Answer: > 6.70
